Where “and” joins values, the source holds several entries; their conditions need not be identical. Identical values can stand only once.
How the values were obtained:
mouse TTR gene = assay: In vivo editing in mouse liver, sgRNA targeting TTR (G282 or G502), % indel by NGS; design: species or system CD-1 female mice
Protocol: (§1) CD-1 female mice ranging from 6-10 weeks of age were used in each study. Animals were weighed and grouped according to body weight for preparing dosing solutions based on group average weight. LNPs were dosed via the lateral tail vein in a volume of 0.2 mL per animal (approximately 10 mL per kilogram body weight). The animals were periodically observed for adverse effects for at least 24 hours post dose. For studies measuring in vivo editing in liver, CD-1 female mice were dosed at 0.1 mg/kg unless otherwise noted. Animals were euthanized at 6 or 7 days by ex sanguination via cardiac puncture under isoflurane anesthesia. Liver tissue was collected from each animal for DNA extraction and analysis. Blood was collected into serum separator tubes or into tubes containing buffered sodium citrate for plasma as described herein. Cohorts of mice were measured for editing by Next-Generation Sequencing (NGS).
(§2) In brief, to quantitatively determine the efficiency of editing at the target location in the genome, genomic DNA was isolated and deep sequencing was utilized to identify the presence of insertions and deletions introduced by gene editing.
(§3) PCR primers were designed around the target site (e.g., within B2M), and the genomic area of interest was amplified. Additional PCR was performed according to the manufacturer's protocols (Illumina) to add the necessary chemistry for sequencing. The amplicons were sequenced on an Illumina MiSeq instrument. The reads were aligned to the mouse or rat reference genome (e.g., GRCm38) after eliminating those having low quality scores. The resulting files containing the reads were mapped to the reference genome (BAM files), where reads that overlapped the target region of interest were selected and the number of wild type reads versus the number of reads which contain an insertion, substitution, or deletion was calculated.
(§4) The editing percentage (e.g., the “indel efficiency” or “percent indels”) was defined as the total number of sequence reads with insertions or deletions over the total number of sequence reads, including wild type.
(§5) We assessed in vivo editing efficiency for materials delivered with formulations including various amine lipid compounds. Editing was measured using either G282 (SEQ ID No: 1) which targets the mouse TTR gene or G650 (SEQ ID No. 2) which targets the mouse B2M gene. Lipids described above were assessed for efficacy through in vivo editing experiments. LNPs were formulated at a 1:1 or 1:1.3 w/w ratio of sgRNA to Cas9 mRNA, and at an N/P ratio of about 6. Molar concentrations of lipids in the lipid component of the LNPs are used at mol % amine lipid/DSPC/cholesterol/PEG-2k-DMG of 50/9/38/3. The final LNPs were characterized to determine the encapsulation efficiency, polydispersity index, and average particle size according to the analytical methods provided above. Analysis of average particle size, polydispersity (PDI), total RNA content and encapsulation efficiency of RNA are shown in Table 2.
To assess whether the editing was dose responsive, experiments were performed in vivo at various LNP dose levels. Cas9 mRNA of Example 120 was formulated as LNPs with an sgRNA targeting TTR (G282, SEQ ID NO: 1; or G502, SEQ ID NO: 4).
(§6) We assessed in vivo delivery by measuring editing efficiency for materials delivered with formulations that included various amine lipid compounds. Cas9 mRNA (SEQ ID NO: 6) was formulated as LNPs with an sgRNA targetting the TTR mouse gene (SEQ ID NO: 4). LNPs were formulated at a 1:2 w/w ratio of sgRNA to Cas9 mRNA, and at an N/P ratio of about 6. Molar concentrations of lipids in the lipid component of the LNPs are used at mol % amine lipid/DSPC/cholesterol/PEG-2k-DMG of 50/9/38/3. The final LNPs compositions were characterized and analyzed as described in Example 120. Analysis of average particle size, polydispersity (PDI), total RNA content and encapsulation efficiency of RNA are shown in Table 6.

Transthyretin (TTR) = assay: Serum TTR ELISA in mice after LNP dosing; type: in vivo, CD-1 female mice
Summary of the method: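 Female CD-1 mice, 6–10 weeks, given LNPs by tail-vein injection (~10 mL/kg), 0.1 mg/kg unless noted; serum taken at day 6 or 7 by cardiac puncture. Total mouse TTR by ELISA on sera diluted 10,000-fold (0.1 mg/kg) or 10,000- and 2,500-fold (0.3 mg/kg).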

mouse B2M gene [1] = assay: In vivo editing in mouse liver, sgRNA targeting B2M (G650), % indel by NGS; design: species or system CD-1 female mice; details: for Editing Mean % Indel: mouse liver, guide G650, Experiment 104; for Liver editing (%): mouse, experiment 108
Protocol: as §1, §2, §3, §4, §5
Alternatively, Cas9 mRNA of Example 120 was formulated as LNPs with an sgRNA targeting B2M (G650, SEQ ID NO: 2) These LNPs were formulated at a w/w ratio of a sgRNA and Cas9 mRNA as indicated in Table 4. The LNPs were formulated using the cross flow procedure with lipid molar compositions of mol % amine lipid/DSPC/cholesterol/PEG-2k-DMG of 50/9/38/3 and an N/P ratio of 6.0. […]
(§7) CD-1 female mice were dosed i.v. at 0.1, 0.3, or 1 mg/kg and assessed for editing in liver, spleen, and bone marrow.

mouse B2M gene [2] = assay: In vivo editing in mouse spleen, G650 sgRNA, % indel by NGS; design: species or system CD-1 female mice; details: experiment 108
Protocol: as §2, §3, §4
as §6, with “The in” for “We assessed in”, “delivery to liver, spleen, and bone marrow was assessed” for “delivery”, “formulations including” for “formulations that included”, “compounds. […]” for “compounds. Cas9 mRNA (SEQ ID NO: 6) was formulated as LNPs with an sgRNA targetting the TTR mouse gene (SEQ ID NO: 4).”, “Cas9 mRNA” for “Cas9 mRNA,”, “Table 8.” for “Table 6.”
as §7

[3] = LNP i.v. 0.1 mg/kg, guide G282, Experiments 101-103
[4] = LNP i.v. 0.3 mg/kg, guide G282, Experiments 101-103
[5] = mouse serum TTR relative to TSS control, guide G282 experiments
[6] = mouse serum, guide G282 experiments, ELISA
[7] = mouse, LNP i.v. 0.1 mg/kg, guide G282, Experiments 101-103
[8] = mouse, LNP i.v. 0.1 mg/kg, guide G282, Experiments 101-103, relative to TSS control
[9] = mouse, LNP i.v. 0.3 mg/kg, guide G282, Experiments 101-103
[10] = mouse, LNP i.v. 0.3 mg/kg, guide G282, Experiments 101-103, relative to TSS control
[11] = LNP i.v. 0.03 mg/kg, guide G502, Experiment 105
[12] = LNP i.v. 0.1 mg/kg, guide G502, Experiment 105
[13] = mouse, LNP i.v. 0.03 mg/kg, guide G502, Experiment 105
[14] = mouse, LNP i.v. 0.03 mg/kg, guide G502, Experiment 105, relative to TSS control
[15] = mouse, LNP i.v. 0.1 mg/kg, guide G502, Experiment 105
[16] = mouse, LNP i.v. 0.1 mg/kg, guide G502, Experiment 105, relative to TSS control

Structure (SMILES) | Editing Mean % Indel (mouse TTR gene; [3]) | Editing Mean % Indel (mouse TTR gene; [4]) | Serum TTR % TSS (Transthyretin (TTR); [5]) | Serum TTR (Transthyretin (TTR); [6]) | Serum TTR (Transthyretin (TTR); [7]) | Serum TTR % TSS (Transthyretin (TTR); [8]) | Serum TTR (Transthyretin (TTR); [9]) | Serum TTR % TSS (Transthyretin (TTR); [10]) | Editing Mean % Indel (mouse B2M gene [1]; LNP i.v. 0.1 mg/kg) | Editing Mean % Indel (mouse B2M gene [1]; LNP i.v. 0.3 mg/kg) | Editing Mean % Indel (mouse TTR gene; [11]) | Editing Mean % Indel (mouse TTR gene; [12]) | Serum TTR (Transthyretin (TTR); [13]) | Serum TTR % TSS (Transthyretin (TTR); [14]) | Serum TTR (Transthyretin (TTR); [15]) | Serum TTR % TSS (Transthyretin (TTR); [16]) | Liver editing (%) (mouse B2M gene [1]; G650, i.v. dose 0.1 mg/kg) | Liver editing (%) (mouse B2M gene [1]; G650, i.v. dose 0.3 mg/kg) | Liver editing (%) (mouse B2M gene [1]; G650, i.v. dose 1 mg/kg) | % Editing in Spleen (mouse B2M gene [2]; G650, i.v. dose 0.1 mg/kg) | also measured
CCCCC/C=C\C/C=C\CCCCCCCC(=O)OCC(COC(=O)CCC(OCCCCCCCC)OCCCCCCCC)COC(=O)NCC1CCCN1CC (stereo not shown) [Compound 40, 3-((4,4-bis(octyloxy)butanoyl)oxy)-2-(((((1-ethylpyrrolidin-2-yl)methyl)carbamoyl)oxy)methyl)propyl (9Z,12Z)-octadeca-9,12-dienoate] | 30.2% | 68.0% | 44% | 393 µg/mL | 443 µg/mL | 48% | 80 µg/mL | 9% |  |  |  |  |  |  |  |  |  |  |  |  | 
CCCCCCCCCCOC(=O)CCCCCCCC(=O)OCC(COC(=O)CCC(OCCCCCCCC)OCCCCCCCC)COC(=O)OCCCN(CC)CC (stereo not shown) [Compound 59, 1-(3-((4,4-bis(octyloxy)butanoyl)oxy)-2-((((3-(diethylamino)propoxy)carbonyl)oxy)methyl)propyl) 9-decyl nonanedioate] | 32.4% | 63.9% | 40% and 57% and 66% | 367 µg/mL and 431 µg/mL and 604 µg/mL | 300 µg/mL | 49% | 43 µg/mL | 7% | 21.2% | 51.6% | 11.8% | 35.64% | 909 µg/mL | 83% | 467 µg/mL | 42% |  |  |  |  | 
CCCCC/C=C\C/C=C\CCCCCCCC(=O)OCC(COC(=O)CCC(OCCCCCCCC)OCCCCCCCC)COC(=O)OCCCN(CC)CC (stereo not shown) [Compound 1, 3-((4,4-bis(octyloxy)butanoyl)oxy)-2-((((3-(diethylamino)propoxy)carbonyl)oxy)methyl)propyl (9Z,12Z)-octadeca-9,12-dienoate, reference compound] |  |  |  |  |  |  |  |  | 17.8% | 50.3% | 9.24% | 47.62% | 931 µg/mL | 85% | 294 µg/mL | 27% | 23.74% | 58.48% | 73.6% | 0.62% | % Editing in Spleen (mouse B2M gene [2]; G650, i.v. dose 0.3 mg/kg): 2.2%; % Editing in Spleen (mouse B2M gene [2]; G650, i.v. dose 1 mg/kg): 6.26%; Serum TTR % TSS (Transthyretin (TTR); mouse serum TTR relative to TSS control, guide G502, i.v. 0.1 mg/kg, 0.1 mg/kg): 53.7% and 37.8%; Serum TTR (Transthyretin (TTR); mouse serum, guide G502, i.v. 0.1 mg/kg, 0.1 mg/kg): 593.76 µg/mL and 442 µg/mL; Serum TTR % TSS (Transthyretin (TTR); mouse, LNP i.v. 0.1 mg/kg, guide G282, Experiments 101-103, relative to TSS control, 0.1 mg/kg): 79% and 54% and 76%; Serum TTR % TSS (Transthyretin (TTR); mouse, LNP i.v. 0.3 mg/kg, guide G282, Experiments 101-103, relative to TSS control, 0.3 mg/kg): 20% and 13%
CCCCCCCCCC(C)OC(=O)CCCCCCCC(=O)OCC(COC(=O)CCC(OCCCCCCCC)OCCCCCCCC)COC(=O)OCCCN(CC)CC (stereo not shown) [Compound 94, 1-(344,4-bis(octyloxy)butanoyl)oxy)-2-((((3-(diethylamino)propoxy)carbonyl)oxy)methyl)propyl) 9-(undecan-2-yl) nonanedioate] |  |  | 38% | 286 µg/mL |  |  |  |  |  |  | 19.76% | 43.52% | 605 µg/mL | 55% | 352 µg/mL | 32% |  |  |  |  | 
CCCCC/C=C\C/C=C\CCCCCCCC(=O)OCC(COC(=O)CC12CC3CC(CC(C3)C1)C2)COC(=O)OCCCN(CC)CC (stereo not shown) [Compound 107, 3-(2-((3 r,5 r, 7r)-adamantan-1-yl)acetoxy)-2-((((3-(diethylamino)propoxy)carbonyl)oxy)methyl)propyl (9Z,12Z)-octadeca-9,12-dienoate] |  |  |  |  |  |  |  |  |  |  |  |  |  |  |  |  | 0.52% | 1.04% | 5.92% | 0.08% | % Editing in Spleen (mouse B2M gene [2]; G650, i.v. dose 0.3 mg/kg): 0.12%; % Editing in Spleen (mouse B2M gene [2]; G650, i.v. dose 1 mg/kg): 0.3%
CCCCC/C=C\C/C=C\CCCCCCCC(=O)OCC(COC(=O)CCC(OCCCCCCCC)OCCCCCCCC)COC(=O)OCC1CCCN(C)C1 (stereo not shown) [Compound 53, 3-((4,4-bis(octyloxy)butanoyl)oxy)-2-(((((1-methylpiperidin-3-yl)methoxy)carbonyl)oxy)methyl)propyl (9Z,12Z)-octadeca-9,12-dienoate] | 8.6% | 48.2% | 47% | 413 µg/mL | 619 µg/mL | 67% | 231 µg/mL | 25% |  |  |  |  |  |  |  |  |  |  |  |  | 

Source: US20220402862A1 (Intellia Therapeutics, Inc., priority 2019, published 2022)
